Assay results: article PMC8831520, “Small molecule SWELL1 complex induction improves glycemic control and nonalcoholic fatty liver disease in murine Type 2 diabetes” (Nature Communications, 2022)

How the values were obtained:
[1] = system: T1, SWELL1 protein in 3T3-F442A preadipocytes; assay: SWELL1 protein western blot in preadipocytes; assay type: cell-based, murine; conditions: 10 µM, 96 h
T1 construct: host or cells: 3T3-F442A preadipocytes and differentiated adipocytes (wild type)
Protocol: In the case of 3T3-F442A adipocytes, the WT and KO cells were treated with either vehicle (DMSO), 1 or 10 µM SN-40X (after 7–11 days of differentiation) for 96 h and then stimulated with 0 and 10 nM insulin/serum-containing media with vehicle (DMSO) or SN-40X for 15 min for SWELL1 detection. […] To simulate glucolipotoxicity, 8 mM sodium palmitate was dissolved in 18.4% fatty-acid free BSA at 37 °C in DMEM medium with 25 mM glucose to obtain a conjugation ratio of 1:3 palmitate:BSA[80].
Adipocytes were washed twice in ice-cold phosphate buffer saline and lysed in RIPA buffer (150 mM NaCl, 20 mM HEPES, 1% NP-40, 5 mM EDTA, pH 7.4) with proteinase/phosphatase inhibitors (Roche). The cell lysate was further sonicated in 10 s cycle intervals 2–3 times and centrifuged at 18,407×g for 30 min at 4 °C and repeated one more time to remove the excess fat. The supernatant was collected and further estimated for protein concentration using a DC protein assay kit (Bio-Rad). Fat and liver tissues were homogenized and suspended in RIPA buffer with inhibitors and further processed in a similar fashion as described above. HUVECs were also prepared in a similar fashion except the lysates were spun only once to remove the cells debris to obtain the clear supernatant. […] The images were further analyzed for band intensities using ImageJ software. […]

cadaveric human islets = assay: GSIS perifusion of palmitate-treated human islets; assay type: cell-based; conditions: 10 µM for 4 days prior to and during 1 mM palmitate 16 h, washed off during GSIS
Protocol: Cadaveric human islets were obtained from the Integrated Islet Distribution Program (IIDP), Prodo Laboratories, and the Alberta Diabetes Institute Islet Core. The human islets obtained from the Integrated Islet Distribution program and Prodo laboratories were exempt from Institutional Review Board approval under 45 CRR 46.101 (b) category (4) and 45 CFR 46.102 h, respectively. Human islets were obtained from the Alberta Diabetes Institute IsletCore at the University of Alberta in Edmonton (http://www.bcell.org/adi-isletcore.html) with the assistance of the Human Organ Procurement and Exchange (HOPE) program, Trillium Gift of Life Network (TGLN), and other Canadian organ procurement organizations. Islet isolation was approved by the Human Research Ethics Board at the University of Alberta (Pro00013094). All donors’ families gave informed consent for the use of pancreatic tissue in research. Human islets were cultured in RPMI media with 2% FBS overnight. […] Insulin concentrations were further determined using a commercially available ELISA kit (Mercodia). The area under the curve (AUC) for the high-glucose-induced insulin release was calculated for time points between 50 to 74/84 min. At the completion of the experiment, islets were further lysed by the addition of RIPA buffer and the amount of insulin was detected by ELISA.

With `CCCCC1(C2CCCC2)Cc2cc(OCCCC(=O)O)c(Cl)c(Cl)c2C1=O` (centres unmarked) [SN-401, 4-((2-butyl-6,7-dichloro-2-cyclopentyl-1-oxo-2,3-dihydro-1H-inden-5-yl)oxy)butanoic acid] the SWELL1 protein expression [1] was “threefold” and the “glucose-stimulated insulin secretion after palmitate” value (cadaveric human islets) was “normalized”.
